Source: patent publication US7265155B2 (NBS Pharmaceuticals, Inc., priority 1996, dated 2007)
Values joined by “and” are separate entries in the source; they are usually repeats but may differ in a detail not shown here. Equal entries are not always repeated. “Also recorded” adds a separate entry of the source. Where two headings read alike, the source gives them in different places. Marks after values point to notes of the source that are not given here.

Experiments:
[1] = Rotarod motor impairment (toxicity) in the Frings mouse; assay type: in vivo; details: Frings, mouse, in vivo
Method: (§1) The average seizure score can be calculated for each group of mice employed in the dose-response study. At each dose, mice are also tested on a rotarod for testing of motor impairment (toxicity). Testing for motor impairment on the rotarod involves placing a mouse for a three-minute trial period on a one-inch diameter rod rotating at six revolutions per minute. If the mouse falls off of the rotating rod three times within the three-minute time period, it is considered a toxic response.

Frings mouse = assay: as above; assay type: in vivo
Method: as §1

amygdala-kindled rat = assay: Anticonvulsant activity in the fully amygdala-kindled rat; assay type: in vivo; details: oral dosing, sixty minutes before stimulation
Method: Isovaleramide was evaluated for its ability to block the expression of amygdala-kindled seizures in fully kindled rats. Isovaleramide was evaluated for its ability to block the kindled motor seizure (seizure scores of 4 and 5) and limbic behavioral seizures (seizure score between 1-3) as well as to affect changes in afterdischarge duration.
Adult, male Sprague-Dawley rats weighing at least 230 gr were implanted with a teflon-coated bipolar electrode sterotaxically placed in the anterior basolateral nucleus of the amygdala under ketamine and xylazine anesthesia. The electrode was implanted at the following coordinates with Bregma as zero: AP-2.2 mm, ML-4.7 mm, DV-8.7 mm. After a one-week recovery period, animals were kindled to Stage 5 behavioral seizures using a stimulus consisting of a 50 Hz, 1 sec train of 1 ms biphasic 150 uA pulses that were delivered once daily until 10 consecutive stage 5 seizures were evoked. Testing of isovaleramide was initiated after a one-week, stimulus-free period. On the compound test day, rats displaying a stage 5 seizure were divided into multiple treatment groups (i.e., vehicle control and isovaleramide treatment). Sixty minutes after oral dosing, individual rats received a 300 uA, 1 sec duration stimulation and their seizure score and afterdischarge duration recorded. Seizure score was classified according to Racine (Electroencephalogr. Clin. Neurophysiol. 32:281-294, (1972): stage 0: no abnormal behavior; stage 1: mouth or facial movements; stage 2: mouth or facial movements and head nodding; stage 3: stage 2 and forelimb clonus; stage 4: stage 3 and rearing; stage 5: stage 4 and falling. A score of 2-3 represents a focal seizure while a score of 4-5 represents secondarily generalized seizures. Afterdischarge duration was the total duration of the amygdala electroencephalogram spikes with an amplitude of at least twice the amplitude of the prestimulus recording and a frequency greater than 1/sec.

[2] = cited from earlier work

For CC(C)CC(N)=O [Isovaleramide, isovaleramide], the TD50 at 15 min ([1]; ip, 15 minutes, read-out: TD50 for rotarod impairment) was 531 mg/kg, the TD50 at 15 min ([1]; oral, read-out: TD50) was 1010 mg/kg and the “Number Showing Toxicity of Eight Mice Tested” value (“Number Showing Toxicity” for short) (Frings mouse; 75 mg/kg i.p., 15 minutes) was 0. For the same molecule, the “Number Showing Toxicity” value (Frings mouse; 112.5 mg/kg i.p., 15 minutes) was 0, the “Number Showing Toxicity” value (Frings mouse; 150 mg/kg i.p., 15 minutes) was 0 and the “Number Showing Toxicity” value (Frings mouse; 300 mg/kg i.p., 15 minutes) was 1/8 and 1. For the same molecule, the “Number Showing Toxicity” value (Frings mouse; 300 mg/kg oral, tested at 15 minutes) was 1, the “Number Showing Toxicity” value (Frings mouse; 600 mg/kg i.p., 15 minutes) was 4/8 and 4 and the “Number Showing Toxicity” value (Frings mouse; 600 mg/kg oral, tested at 15 minutes) was 1. The “Number Showing Toxicity” value (Frings mouse; 1000 mg/kg i.p., 15 minutes) was 8/8 and 8, the “Number Showing Toxicity” value (Frings mouse; 1000 mg/kg oral, tested at 15 minutes) was 5 and the “Number Showing Toxicity” value (Frings mouse; 1500 mg/kg oral, tested at 15 minutes) was 5. The “Number Showing Toxicity” value (Frings mouse; 2000 mg/kg oral, tested at 15 minutes, only seven mice tested) was 7^d, the “rotarod performance in the Frings mouse” value (Frings mouse; doses up to 512 mg/kg i.p. 15 minutes before test) was “did not affect performance significantly” and the “doses at which behavioral toxicity (inability to maintain balance on the rotarod) was displayed” value (Frings mouse; i.p.) was greater than 300 mg/kg. The “doses at which no notable toxicity was observed” value (Frings mouse; i.p.) was “less than 300 mg/kg”, the afterdischarge duration (amygdala-kindled rat) was “decreased” and the “generalized seizure responses of fully kindled rats” value (amygdala-kindled rat) was “effective in reducing in a dose-dependent manner the generalized seizure responses; also recorded: effective in reducing, in a dose-dependent manner, the generalized seizure responses”. For the same molecule, the mean seizure score (amygdala-kindled rat) was “decreased” and the “acute toxicity in vivo” value [2] was “low acute toxicity in vivo”.
